Activity calls are given as the source filed them. The calls are words filed in the database; no cut-off is given here.
Assays:
[1] = Drug localization in human HepG2 cell cytoplasm at assessed as doxorubicin conjugates accumulation 10 uM after 24 hrs by DAPI staining-based fluorescence microscopic analysis; type: ADME; conditions: hepg2, 24 h
HepG2 [2] = assay: Cytotoxicity against human HepG2 cells assessed as cell viability up to 70 uM after 2 hrs by MTS assay; type: functional, cell-based
HepG2 [3] = assay: Cytotoxicity against human HepG2 cells assessed as reduction in cell viability at 100 umol after 48 hrs by MTS assay relative to control; type: functional
[4] = Drug uptake in human HepG2 cells assessed as doxorubicin conjugates accumulation at 10 uM after 6 hrs by fluorescence assay; type: ADME, cell-based; conditions: hepg2, 6 h
[5] = Drug uptake in human HEK293 cells assessed as assessed as doxorubicin conjugates accumulation at 10 uM after 6 hrs by fluorescence assay; type: ADME, cell-based; conditions: hek293, 6 h
[6] = Drug localization in human HepG2 cell nucleus assessed as doxorubicin conjugates accumulation at 10 uM after 24 hrs by DAPI staining-based fluorescence microscopic analysis; type: ADME; conditions: hepg2, 24 h
HepG2 [7] = assay: Cytostatic activity against human HepG2 cells assessed as cell viability at 0.02 to 70 uM after 48 hrs by MTS assay; type: functional, cell-based
[8] = Drug uptake in human HEK293 cells assessed as doxorubicin conjugates accumulation at 10 uM after 24 hrs by fluorescence assay; type: ADME, cell-based; conditions: hek293, 24 h

Compound	Drug uptake [1]	Activity (HepG2 [2])	Activity (HepG2 [3])	Drug uptake [4]	Drug uptake [5]	Drug uptake [6]	Activity (HepG2 [7])	Drug uptake [8]
COc1cccc2c1C(=O)c1c(O)c3c(c(O)c1C2=O)C[C@@](O)(C(=O)CO)C[C@@H]3O[C@H]1C[C@H](NC(=O)CCCc2cn(CCO[C@@H]3O[C@H](CO)[C@H](O)[C@H](O)[C@H]3NC(C)=O)nn2)[C@H](O)[C@H](C)O1	Active	inactive	20 - 30%	Active	Active			
COc1cccc2c1C(=O)c1c(O)c3c(c(O)c1C2=O)C[C@@](O)(C(=O)CO)C[C@@H]3O[C@H]1C[C@H](N)[C@H](O)[C@H](C)O1.Cl [DOXORUBICIN HYDROCHLORIDE]		inactive		Not Active		Not Active	Active	
COc1cccc2c1C(=O)c1c(O)c3c(c(O)c1C2=O)C[C@@](O)(C(=O)CO)C[C@@H]3O[C@H]1C[C@H](NC(=O)CCCc2cn([C@@H]3O[C@H](CO)[C@H](O)[C@H](O)[C@H]3NC(C)=O)nn2)[C@H](O)[C@H](C)O1	Active	inactive	20 - 30%	Active	Active			Active
C=CCO[C@@H]1O[C@H](Cn2cc(CCCC(=O)N[C@H]3C[C@H](O[C@H]4C[C@](O)(C(=O)CO)Cc5c(O)c6c(c(O)c54)C(=O)c4c(OC)cccc4C6=O)O[C@@H](C)[C@H]3O)nn2)[C@H](O)[C@H](O)[C@H]1NC(C)=O	Active	inactive	20 - 30%	Active	Active			

From ChEMBL document CHEMBL4184088, “Synthesis and biological evaluation of novel doxorubicin-containing ASGP-R-targeted drug-conjugates” (Bioorg Med Chem Lett, 2018)
